# Structures can show the parent of a compound that is named as a salt.
# Experiments:
# [1] = tested on: nitroglycerin-induced migraine mouse model; assay: nitroglycerin-induced migraine mouse model (hot plate, head scratching, body weight); assay type: in vivo, ICR mice
# Procedure: 48 ICR mice weigt 18-22 g, half male and half female; purchased from Qinglongshan Animal Breeding Farm, Jiangning District, Nanjing City, certificate: SCXK (Su) 2017-0001; rearing conditions: room temperature 18-20° C., same sex rearing in separate cages, 12 hours of light, regular ventilation, conventional full-price solid feed feeding, bedding changed every two days; 48 mice were randomly divided into 6 groups (blank control group, model group, positive drug group, low-dose group of test drug, medium-dose group of test drug, high-dose group of test drug), 8 animals (4♀4) in each group, marked No. 1-8 with picric acid respectively.
# Solvent: 0.5% CMC-Na aqueous solution; positive drug: flunarizine hydrochloride (sibelin) capsules (specification 5 mg), take the contents in a mortar, add 100 ml of 0.5% CMC-Na solution while grinding, placed in EP tubes for standby; Test drug (compound 5): dissolve into 5, 10, 20 mg/ml solutions with distilled water respectively, and placed in EP tubes for standby; Modeling drug (nitroglycerin): take 2 nitroglycerin tablets (specification 5 mg), crushed into powder, placed in EP tubes, added 500 μl of propylene glycol with a pipette and shaken well, standing still for 5 minutes, added 9.5 ml of normal saline, shaken well and standing still overnight, take the supernatant (containing nitroglycerin) 1 mg/ml) for use.
# Except for the first group (blank control group), animals in other groups were subcutaneously injected with 10 mg/kg (0.2 ml/20 g) of nitroglycerin back-up solution 1 h after each administration (modeling once every other day on the 1st, 3rd, and 5th days).
# The first group was the blank control group, which was given 0.5% CMC-Na 0.2 ml/20 g by gavage; the second group was the model group, which was given 0.5% CMC-Na by gavage; the third group was the positive drug group, which was given by gavage Flunarizine hydrochloride (sibilin) 1 mg/kg; the fourth group was the low-dose group of test drug, which was given 100 mg/kg of compound 5 by gavage; the fifth group was the medium-dose group of test drug, which was given 200 mg/kg of compound 5 by gavage; the sixth group was the high-dose group of test drug, which was given 400 mg/kg of compound 5 by gavage. Dosing every other day on days 1, 3, and 5.
# In behavioral studies, mice scratching their heads for more than 5 times or scratching their faces with forelimbs for more than 5 times were identified as migraine-related behaviors caused by modeling, with a record of scratching their heads once; in the hot plate method, mice lifted their hind limbs and licked their hind feet as the observation indicator, record the time immediately.
# [2] = tested on: reserpine depression model mice; assay: forced swimming test in mice (reserpine depression model); assay type: in vivo, Kunming mice; settings: after Res 6 mg/kg i.p., CLI 50, Pro 25, A1P1 24 and 25, compound 5 56 mg/kg i.p.; for Forced swimming immobility time: 5 min test, Means±SEM, Res + DMSO 169.82 ± 11.22, DMSO 106.72 ± 16.49
# Procedure: Experimental Drug, Animal, Grouping and Administration are Same as Sugar Water Preference Experiment Method.
# Preparation of depression animal models, acute intraperitoneal injection of 6 mg/kg Res can cause a continuous decrease in monoamine neurotransmitters in the brain for 1 week, and depression-like behaviors last for 72 hours, it is often utilized for the preparation of depression models (Huang et al., 2004).
# Forced swimming experiment process, the forced swimming experiment is an experiment in which animals are placed in an unavoidable stressful environment to detect the despair state of animal behavior (Porsolt et al., 1978). Male Kunming mice were selected and randomly divided into groups. Conduct in a quiet and enclosed behavioral observation room, with red lights for indoor lighting (25 lux). The experiment is divided into two stages, the first stage: adaptation experiment, 1 day before the test, 9:00-12:00 h, put the animals into the forced swimming test equipment (plexiglass drum: diameter 20 cm, height 25 cm, water depth 12 cm, water temperature 21-25° C., the upper side CCD camera is connected to the computer to record) after 15 minutes of adaptation, take it out, dry the hair with a towel and put it back into the cage. The second stage: testing experiment, animals in each group were put into the forced swimming bucket for 5 minutes at the same time period, and the behavioral activities during the testing period were tracked and recorded by digital cameras and then analyzed. Immobility time: The animal floats on the water surface, with no movement of the limbs or slight movement of the hind limbs to keep the head above the water surface. Evaluate depression like behavior by detecting the despair state of animals based on their immobility time.
# (§1) Statistical analysis, the experimental data were analyzed by SPSS 19.0 statistical software, and all data were expressed as Means±SEM.
# reserpine-treated mice = assay: mouse sugar water preference test (reserpine depression model); assay type: in vivo, Kunming mice; settings: after Res 6 mg/kg i.p., CLI 50, Pro 25, A1P1 24 and 25, compound 5 56 mg/kg i.p.; for Sugar water preference (sugar water drinking amount/total drinking amount): Means±SEM, Res + DMSO 0.642 ± 0.036, DMSO 0.901 ± 0.026
# Procedure: Experimental drug, clomipramine (CLI), sigma company, batch number: C7291, 10 mg/ml (10% DMSO); reserpine (Res), sigma company, batch number: 83580, 1 mg/ml (10% DMSO);
# SPF adult male Kunming mice, 20-30 g, Laboratory Animal Center of Lanzhou University, animal certificate number: SCXK (Gan) 2018-0002, reared in separate cages, temperature 22±1° C., humidity […], 12 h/12 h light and dark cycle controlled by dynamic light (light-on time 8:000 h, light-off time 20:000 h, light intensity≈100 lux), animals could eat and move freely.
# as §1
# [3] = tested on: lipopolysaccharide-induced depression mouse model; assay: lipopolysaccharide-induced depression mouse model (open field, forced swimming test, body weight); assay type: in vivo, ICR mice
# Procedure: Positive drug: fluoxetine hydrochloride capsule (specification 20 mg), take the content in a mortar, add 40 ml of 0.5% CMC-Na solution while grinding, to a suspended state, set EP tube for use; test drug (compound 5): dissolve into 5, 10, and 20 mg/ml solutions in distilled water, respectively, and put them in EP tubes for later use; modeling drug (LPS): take a frozen lipopolysaccharide PBS solution (1.2 mg: 1.2 ml), and after thawing Use a pipette to take 1 ml into the EP tube, replace with a new pipette tip and pipette 9 ml of normal saline into the EP tube, shake well for use.
# Except for the first group (blank control group), other groups of animals were intraperitoneally injected with LPS 2 h before the last administration on the 7th day to the mice in the model group, the positive drug group, and the low, middle and high dose groups of the test drug.
# The first group was the blank control group, which was given 0.5% CMC-Na 0.2 ml/20 g by gavage; the second group was the model group, which was given 0.5% CMC-Na by gavage; the third group was the positive drug group, which was given by gavage Flunarizine hydrochloride (sibilin) 1 mg/kg; the fourth group was the low-dose group of the test drug, which was given 100 mg/kg of compound 5 by gavage; the fifth group was the medium-dose group of the test drug, which was given 200 mg/kg by gavage. kg of compound 5; the sixth group was the test drug high-dose group, and 400 mg/kg of compound 5 was administered by gavage. The drug was administered for one week, and the second to sixth groups were intraperitoneally injected with 1 mg/kg (0.2 ml/20 g) of LPS on the seventh day to establish a model.
# On the 7th day, before the last administration and modeling, the effect of the drug on the spontaneous activity of the mice should be investigated, and it is excluded that the drug increases the spontaneous activity of the mice and interferes with the immobility time in the forced swimming experiment. The total migration distance of each mouse in the open field (50×50×50 cm) within 5 min was calculated using the open field experimental instrument and related computer software. Before the data collection, each mouse was given 5 min to familiarize with the open field environment, after each mouse was tested, its excrement was removed and the odor was eliminated with an alcohol spray bottle.
# Because the air temperature is low, it is appropriate to control the water temperature by adding hot water to the cylinder.
# In the spontaneous activity, the behavioral index selects the total migration distance of mice in the open field within 5 minutes,
# by tracking the movement trajectory of mice through monitoring devices, and using computer software, the total distance of movement can be directly obtained; in the FST experiment, the mice were placed in a into a transparent cylinder filled with warm water (about 25° C.) for 6 minutes, the mice will experience struggling, swimming and floating behaviors, the time when the mice stop struggling to float on the water surface is identified as a state of despair caused by depression, by using monitoring equipment and computer software to statistically analyze the state of mice after 4 minutes, the total “Immobility time” can be directly obtained.
# righting reflex in mice = assay: mouse righting reflex test (sedative and hypnotic effects); assay type: in vivo, Kunming mice; settings: intraperitoneal, Pro 25 mg/kg, n = 7
# Procedure: Experimental animals, SPF Kunming mice, male, 20-30 g, Laboratory Animal Center of Lanzhou University (certificate number: SCXK (Gan) 2018-0002), reared in separate cages, temperature, 22±1° C., humidity, 50%, automatic in the light-controlled 12 h/12 h light-dark cycle (light-on time 8:00 h, light-off time 20:00 h, light intensity ≈100 lux) environment, free food and activities, adapted to the experimental environment for 5 days.
# as §1
# [4] = tested on: hot plate pain threshold in mice; assay: hot plate method, compound 1, intragastric administration; assay type: in vivo
# Procedure: All the mice participating in the experiment were subjected to hot plate pain threshold detection before the experiment, and qualified mice with pain threshold of 10-40 s were screened.
# Accurately weigh an appropriate amount of compound 1, dissolve it in distilled water and prepare a mother liquor of 100 mg/ml, then dilute to 1.25 mg/ml (25 mg/kg), 2.5 mg/ml (50 mg/kg) with double distilled water respectively; accurately weigh an appropriate amount of the positive control drug gabapentin, dissolve in distilled water and prepare a 100 mg/ml mother solution, and then dilute to 10 mg/ml (200 mg/kg) with double distilled water. All medicines are prepared and utilized as needed.
# 40 only qualified mice were divided into 4 groups, half male and half female in each group. The first group is the blank group, no administration; the second group is the positive control (gabapentin) 25 mg/kg group; the third group is the test drug 25 mg/kg group; the fourth group is the test drug 50 mg/kg group 4. All were administered by gavage.
# The mice were placed in a hot plate apparatus at a temperature of 55±0.5° C., and the pain thresholds of the mice were measured and recorded before administration and 60 min after administration.
# [5] = compound 5 56 mg/kg, A1P1 24 and 25 mg/kg, Dia 5 mg/kg
smiles,measurement,setting,value
"Fc1ccc(C(c2ccc(F)cc2)N2CCN(C/C=C/c3ccccc3)CC2)cc1 [flunarizine hydrochloride, reference compound]",weight gain of mice,"[1]; reference blank group, compound 5 100, 200, 400 mg/kg, flunarizine hydrochloride 1 mg/kg, gavage, p>0.05",no significant difference
same,hind feet licking time (hot plate),"[1]; reference model group, flunarizine hydrochloride 1 mg/kg gavage, 45 min after modeling, day 5, p<0.05",significant difference
same,total number of head scratching times,"[1]; reference model group, flunarizine hydrochloride 1 mg/kg gavage, day 5",extremely significant (p<0.01)
"CN(C)CCCN1c2ccccc2CCc2ccc(Cl)cc21 [CLI, clomipramine, reference compound]",change of forced swimming immobility time compared with the Res+DMSO group,[2],significantly shortened
same,Forced swimming immobility time,[2],80.66 ± 23.68 s
same,change of preference for sugar water compared with the Res+DMSO group,reserpine-treated mice,significantly increased
same,Sugar water preference (sugar water drinking amount/total drinking amount),reserpine-treated mice,0.812 ± 0.025
"CNCCC(Oc1ccc(C(F)(F)F)cc1)c1ccccc1 (stereo not shown) [fluoxetine hydrochloride, reference compound]",effect on body weight of mice,"[3]; compound 5 100, 200, 400 mg/kg and positive drug, gavage for one week",no significant effect
same,alleviation of depressive behavior caused by LPS,"[3]; compound 5 100, 200, 400 mg/kg and positive drug, gavage for one week, no statistical difference found",certain alleviation effect
same,spontaneous activity: total migration distance in open field within 5 minutes,"[3]; reference blank group, day 7 before last administration, all dose groups, p>0.05",no significant effect
same,FST immobility time,"[3]; reference model group, compound 5 100, 200, 400 mg/kg and positive drug, gavage for one week, 4 h after LPS",not significantly different (p>0.05)
"CC(C)c1cccc(C(C)C)c1O [Pro, Propofol, reference compound]",Duration (disappearance to recovery of the righting reflex),righting reflex in mice,150.97 s
same,Observation of activity and other phenomena,righting reflex in mice; [5],significantly reduced
same,change of forced swimming immobility time compared with the Res+DMSO group,[2],slightly shortened
same,Forced swimming immobility time,[2],145.01 ± 21.21 s
same,change of preference for sugar water compared with the Res+DMSO group,reserpine-treated mice,rose significantly
same,Sugar water preference (sugar water drinking amount/total drinking amount),reserpine-treated mice,0.789 ± 0.043
"NCC1(CC(=O)O)CCCCC1 [Gabapentin, gabapentin, reference compound]",Pain response time Before administration,"[4]; 25 mg/kg gavage group, baseline, n 10, X ± SD",16.6 ± 5.2 s
same,Pain response time After administration,"[4]; 25 mg/kg gavage, 60 min after administration, X ± SD",33.5 ± 15.0 s
same,Pain response time extension rate,"[4]; 25 mg/kg gavage, 60 min after administration, blank group 3.9 ± 6.6",113.4 ± 99.1 %
"CN1C(=O)CN=C(c2ccccc2)c2cc(Cl)ccc21 [Dia, Diazepam, reference compound]",Disappearance time (latency of disappearance of the righting reflex),righting reflex in mice; [5],did not disappear
same,Observation of activity and other phenomena,righting reflex in mice; [5],significantly reduced
